Source: patent US5202315A, “Cephalosporin compounds” (Lucky, Ltd., priority 1989, dated 1993)
Values after ≈ are worked out from the molar mass of the structure shown. Read-outs that look alike come from different tables or passages of the source.

Columns and labels:
[1] = system: Acinetobacter calcoaceticus ATCC 15473; assay: Antibacterial activity, MIC; type: cell-based
In short: (§1)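 Plates of Mueller-Hinton agar containing two-fold serial dilutions of compound were inoculated with 2 μl of test strain suspension (10^7 CFU per ml) and incubated for 20 hours at 37 °C.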

[2] = system: Bacillus cereus ATCC 11778; assay: Antibacterial activity, MIC; type: cell-based
In short: as §1

[3] = system: Bacillus megaterium ATCC 9885; assay: Antibacterial activity, MIC; type: cell-based; conditions: Priestia megaterium
In short: as §1

[4] = system: Citrobacter freundii ATCC 8090; assay: Antibacterial activity, MIC; type: cell-based
In short: as §1

[5] = system: Enterobacter aerogenes ATCC 29751; assay: Antibacterial activity, MIC; type: cell-based; conditions: Klebsiella aerogenes
In short: as §1

[6] = system: Enterobacter cloacae ATCC 27508; assay: Antibacterial activity, MIC; type: cell-based
In short: as §1

[7] = system: Escherichia coli ATCC 10536; assay: Antibacterial activity, MIC; type: cell-based; conditions: ATCC10536, agar two-fold dilution, 37° C., 20 hours
In short: as §1

[8] = system: Escherichia coli ATCC 25922; assay: Antibacterial activity, MIC; type: cell-based; conditions: ATCC25922, agar two-fold dilution, 37° C., 20 hours
In short: as §1

[9] = system: Klebsiella pneumoniae ATCC 10031; assay: Antibacterial activity, MIC; type: cell-based
In short: as §1

[10] = system: Micrococcus luteus ATCC 9341; assay: Antibacterial activity, MIC; type: cell-based
In short: as §1

[11] = system: Morganella morganii ATCC 8076h; assay: Antibacterial activity, MIC; type: cell-based; conditions: ATCC8076H, agar two-fold dilution, 37° C., 20 hours
In short: as §1

[12] = system: Proteus mirabilis ATCC 25933; assay: Antibacterial activity, MIC; type: cell-based
In short: as §1

[13] = system: Proteus vulgaris ATCC 6059; assay: Antibacterial activity, MIC; type: cell-based
In short: as §1

[14] = system: Providencia rettgeri ATCC 9250; assay: Antibacterial activity, MIC; type: cell-based; conditions: ATCC9250, agar two-fold dilution, 37° C., 20 hours
In short: as §1

[15] = system: Pseudomonas aeruginosa ATCC 10145; assay: Antibacterial activity, MIC; type: cell-based
In short: as §1

[16] = system: Pseudomonas aeruginosa ATCC 25619; assay: Antibacterial activity, MIC; type: cell-based
In short: as §1

[17] = system: Pseudomonas aeruginosa ATCC 27853; assay: Antibacterial activity, MIC; type: cell-based
In short: as §1

[18] = system: Salmonella typhimurium ATCC 14028; assay: Antibacterial activity, MIC; type: cell-based; conditions: Salmonella enterica
In short: as §1

[19] = system: Serratia marcescens ATCC 27117; assay: Antibacterial activity, MIC; type: cell-based
In short: as §1

[20] = system: Shigella flexneri ATCC 11836; assay: Antibacterial activity, MIC; type: cell-based; conditions: ATCC11836, agar two-fold dilution, 37° C., 20 hours
In short: as §1

[21] = system: Shigella sonnei ATCC 11060; assay: Antibacterial activity, MIC; type: cell-based; conditions: ATCC11060, ATCC 11060, agar two-fold dilution, 37° C., 20 hours, read-out: MIC
In short: as §1

[22] = system: Staphylococcus aureus ATCC 10537; assay: Antibacterial activity, MIC; type: cell-based
In short: as §1

[23] = system: Staphylococcus aureus ATCC 6538p; assay: Antibacterial activity, MIC; type: cell-based; conditions: ATCC6538P
In short: as §1

[24] = system: Staphylococcus epidermidis ATCC 12228; assay: Antibacterial activity, MIC; type: cell-based
In short: as §1

[25] = system: Streptococcus faecalis ATCC 29212; assay: Antibacterial activity, MIC; type: cell-based; conditions: Enterococcus faecalis
In short: as §1

[26] = system: Escherichia coli; assay: Antibacterial activity against clinically isolated strains, MIC; type: cell-based
[27] = system: Klebsiella pneumoniae; assay: as above; type: cell-based
[28] = system: Staphylococcus aureus methicillin susceptible; assay: as above; type: cell-based
[29] = system: Staphylococcus aureus methicillin resistant; assay: as above; type: cell-based
[30] = system: Pseudomonas aeruginosa; assay: as above; type: cell-based
[31] = In-vivo absorbency (plasma concentrations & pharmacokinetic parameters); parameters: species or system SD rat (male); conditions: rat, in vivo, iv, 20 mg/kg
Text: The blood samples from the femoral vein of the rats were taken every hour after administration, and analyzed by bio-assay(agar well method).
Tested animal: SD male Rat (220~340 g)

[32] = as above; parameters: species or system SD rat (male); conditions: rat, in vivo, iv, 20 mg/kg; remark: listed apart in the source
[33] = 38 clinical isolates, broth microdilution test

SMILES: CC(C)(O/N=C(\C(=O)N[C@@H]1C(=O)N2C(C(=O)[O-])=C(C[n+]3ccccc3)CS[C@H]12)c1csc(N)n1)C(=O)O [Ceftazidime, reference compound]
- MIC ([1]; ATCC15473, 20 h): 4 µg/mL (≈ 7.32 µM)
- MIC ([2]; ATCC11778, 20 h): 128 µg/mL (≈ 234 µM)
- MIC ([3]; ATCC9885, 20 h): 0.25 µg/mL (≈ 0.457 µM)
- MIC ([4]; ATCC8090, 20 h): 0.25 µg/mL (≈ 0.457 µM)
- MIC ([5]; ATCC29751, 20 h): 8 µg/mL (≈ 14.6 µM)
- MIC ([6]; ATCC27508, 20 h): 0.063 µg/mL (≈ 0.115 µM)
- MIC [7]: 0.13 µg/mL (≈ 0.238 µM)
- MIC [8]: 0.13 µg/mL (≈ 0.238 µM)
- MIC ([9]; ATCC10031, 20 h): 0.13 µg/mL (≈ 0.238 µM)
- MIC ([10]; ATCC9341, 20 h): 1 µg/mL (≈ 1.83 µM)
- MIC [11]: 0.016 µg/mL (≈ 0.0293 µM)
- MIC ([12]; ATCC25933, 20 h): 0.063 µg/mL (≈ 0.115 µM)
- MIC ([13]; ATCC6059, 20 h): 0.063 µg/mL (≈ 0.115 µM)
- MIC [14]: ≤ 0.008 µg/mL
- MIC ([15]; ATCC10145, 20 h): 2 µg/mL (≈ 3.66 µM)
- MIC ([16]; ATCC25619, 20 h): 1 µg/mL (≈ 1.83 µM)
- MIC ([17]; ATCC27853, 20 h): 1 µg/mL (≈ 1.83 µM)
- MIC ([18]; 20 h): 0.25 µg/mL (≈ 0.457 µM)
- MIC ([19]; ATCC27117, 20 h): 0.13 µg/mL (≈ 0.238 µM)
- MIC [20]: 0.063 µg/mL (≈ 0.115 µM)
- MIC [21]: 0.13 µg/mL (≈ 0.238 µM)
- MIC ([22]; ATCC10537, 20 h): 8 µg/mL (≈ 14.6 µM)
- MIC ([23]; 20 h): 16 µg/mL (≈ 29.3 µM)
- MIC ([24]; ATCC12228, 20 h): 8 µg/mL (≈ 14.6 µM)
- MIC ([25]; ATCC29212, 20 h): > 128 µg/mL
- MIC50 [26]: 0.13 µg/mL (≈ 0.238 µM)
- MIC90 [26, 33]: 0.13 µg/mL (≈ 0.238 µM)
- MIC50 [27]: 0.063 µg/mL (≈ 0.115 µM)
- MIC90 [27]: 0.5 µg/mL (≈ 0.915 µM)
- MIC50 [28]: 8 µg/mL (≈ 14.6 µM)
- MIC90 [28]: 8 µg/mL (≈ 14.6 µM)
- MIC50 [29]: 128 µg/mL (≈ 234 µM)
- MIC90 [29]: > 128 µg/mL
- MIC50 [30]: 4 µg/mL (≈ 7.32 µM)
- MIC90 [30]: 16 µg/mL (≈ 29.3 µM)
- concentration at 1 h [31]: 4700 ng/mL
- concentration at 2 h [31]: 1600 ng/mL
- AUC [32]: 31100 ng·h/mL
- concentration at 1 min [32]: 135000 ng/mL
- concentration at 2.5 min [32]: 94000 ng/mL
- concentration at 5 min [32]: 71000 ng/mL
- concentration at 10 min [32]: 53000 ng/mL
- concentration at 20 min [32]: 26000 ng/mL
- concentration at 40 min [32]: 10000 ng/mL

SMILES: CCO/N=C(\C(=O)NC1C(=O)N2C(C(=O)[O-])=C(CSc3nc(N)cc(N)[n+]3C)CSC12)c1nsc(N)n1 (stereo not shown) [Compound I-20]
- MIC ([1]; ATCC15473, ATCC 15473, agar two-fold dilution, 37° C., 20 hours, read-out: MIC): 2 µg/mL (≈ 3.53 µM)
- MIC ([2]; ATCC11778, ATCC 11778, agar two-fold dilution, 37° C., 20 hours, read-out: MIC): 32 µg/mL (≈ 56.5 µM)
- MIC ([3]; ATCC9885, ATCC 9885, agar two-fold dilution, 37° C., 20 hours, read-out: MIC): 0.13 µg/mL (≈ 0.229 µM)
- MIC ([4]; ATCC8090, ATCC 8090, agar two-fold dilution, 37° C., 20 hours, read-out: MIC): 0.13 µg/mL (≈ 0.229 µM)
- MIC ([5]; ATCC29751, ATCC 29751, agar two-fold dilution, 37° C., 20 hours, read-out: MIC): 0.25 µg/mL (≈ 0.441 µM)
- MIC ([6]; ATCC27508, ATCC 27508, agar two-fold dilution, 37° C., 20 hours, read-out: MIC): 0.016 µg/mL (≈ 0.0282 µM)
- MIC [7]: 0.13 µg/mL (≈ 0.229 µM)
- MIC [8]: 0.13 µg/mL (≈ 0.229 µM)
- MIC ([9]; ATCC10031, ATCC 10031, agar two-fold dilution, 37° C., 20 hours, read-out: MIC): 0.016 µg/mL (≈ 0.0282 µM)
- MIC ([10]; ATCC9341, ATCC 9341, agar two-fold dilution, 37° C., 20 hours, read-out: MIC): 0.031 µg/mL (≈ 0.0547 µM)
- MIC [11]: 0.016 µg/mL (≈ 0.0282 µM)
- MIC ([12]; ATCC25933, ATCC 25933, agar two-fold dilution, 37° C., 20 hours, read-out: MIC): 0.5 µg/mL (≈ 0.882 µM)
- MIC ([13]; ATCC6059, ATCC 6059, agar two-fold dilution, 37° C., 20 hours, read-out: MIC): 1 µg/mL (≈ 1.76 µM)
- MIC [14]: ≤ 0.008 µg/mL
- MIC ([15]; ATCC10145, ATCC 10145, agar two-fold dilution, 37° C., 20 hours, read-out: MIC): 4 µg/mL (≈ 7.06 µM)
- MIC ([16]; ATCC25619, ATCC 25619, agar two-fold dilution, 37° C., 20 hours, read-out: MIC): 1 µg/mL (≈ 1.76 µM)
- MIC ([17]; ATCC27853, ATCC 27853, agar two-fold dilution, 37° C., 20 hours, read-out: MIC): 2 µg/mL (≈ 3.53 µM)
- MIC ([18]; ATCC 14028, agar two-fold dilution, 37° C., 20 hours, read-out: MIC): 0.5 µg/mL (≈ 0.882 µM)
- MIC ([19]; ATCC27117, ATCC 27117, agar two-fold dilution, 37° C., 20 hours, read-out: MIC): 0.25 µg/mL (≈ 0.441 µM)
- MIC [20]: 0.031 µg/mL (≈ 0.0547 µM)
- MIC [21]: 0.13 µg/mL (≈ 0.229 µM)
- MIC ([22]; ATCC10537, ATCC 10537, agar two-fold dilution, 37° C., 20 hours, read-out: MIC): 0.25 µg/mL (≈ 0.441 µM)
- MIC ([23]; ATCC 6538p, agar two-fold dilution, 37° C., 20 hours, read-out: MIC): 0.5 µg/mL (≈ 0.882 µM)
- MIC ([24]; ATCC12228, ATCC 12228, agar two-fold dilution, 37° C., 20 hours, read-out: MIC): 0.25 µg/mL (≈ 0.441 µM)
- MIC ([25]; ATCC29212, ATCC 29212, agar two-fold dilution, 37° C., 20 hours, read-out: MIC): 32 µg/mL (≈ 56.5 µM)
- MIC50 [26, 33]: 0.063 µg/mL (≈ 0.111 µM)
- MIC90 [26, 33]: 0.25 µg/mL (≈ 0.441 µM)
- MIC50 ([27]; 10 clinical isolates, broth microdilution test): 0.13 µg/mL (≈ 0.229 µM)
- MIC90 ([27]; 10 clinical isolates, broth microdilution test, read-out: MIC 90%): 0.13 µg/mL (≈ 0.229 µM)
- MIC90 [28]: 0.5 µg/mL (≈ 0.882 µM)
- MIC50 ([28]; methicillin susceptible, 42 clinical isolates, broth microdilution test): 0.5 µg/mL (≈ 0.882 µM)
- MIC50 ([29]; methicillin resistant, 7 clinical isolates, broth microdilution test): 16 µg/mL (≈ 28.2 µM)
- MIC90 ([29]; methicillin resistant, 7 clinical isolates, broth microdilution test, read-out: MIC 90%): 32 µg/mL (≈ 56.5 µM)
- MIC90 [30]: 16 µg/mL (≈ 28.2 µM)
- MIC50 ([30]; 54 clinical isolates, broth microdilution test): 4 µg/mL (≈ 7.06 µM)
